# Source: patent US7645756B2, “Nitrogenous fused heteroaromatic ring derivative” (Banyu Pharmaceutical Co. Ltd., priority 2004, dated 2010)
# Target: T1, human histamine-3 receptor (Homo sapiens, UniProt Q9Y5N1)
# T1 construct: expressed in transfected cells; host or cells: HEK293 and CHO-K1 (membrane preparation)
# Assay: Histamine analogue-binding inhibition test ([35S]GTPγS binding, SPA)
# Assay type: biochemical
# Conditions: for IC50: 50% inhibitory concentration to the specific [35S]GTPγS binding, membrane specimen of histamine-3 receptor expressing cells (HEK293, CHO-K1), 20 nM R-methylhistamine, 25° C., 3 hours; for inhibition of the binding of N-alpha-methylhistamine (histamine analogue) to histamine-H3 receptor: summary in words of the table's results
# Text: A cDNA sequence coding for a human histamine-3 receptor [see International Laid-Open WO00/39164) was cloned with expression vectors pCR2.1, pEF1x (by Invitrogen) and pCI-neo (by Promega). The resulting expression vector was transfected into host cells, HEK293 and CHO-K1 (American Type Culture Collection), according to a cationic lipid process [see Proceedings of the National Academy of Sciences of the United States of America, Vol., 84, p. 7413 (1987)] to obtain histamine-3 receptor expression cells.
# A membrane specimen prepared from the cells having expressed a histamine-3 receptor was incubated in an assay buffer (50 mM Tris buffer, 100 mM NaCl, 5 mM MgCl2, pH 7.4) along with a test compound, 20 nM R-methylhistamine (histamine analogue, by Sigma), 10?M GDP (guanine nucleotide diphosphate, by Sigma), 200 pM [^35S]GTPγS (guanine nucleotide triphosphate analogue, by Amersham) and SPA resin (W heat germ agglutinin SPA beads, by Amersham) therein, on a 96-well optiplate (by Packard) at 25° C. for 3 hours, then centrifuged at 3,000 rpm, and the activity was determined with Topcount (by Packard). The non-specific binding was determined in the presence of 10 μM GTPγS (by Sigma), and the 50% inhibitory concentration (IC50) of the test compound to the specific [^35S]GTPγS binding was calculated [see British Journal of Pharmacology, Vol. 135, p. 383 (2002)].
# T1 sequence (Q9Y5N1 whole entry): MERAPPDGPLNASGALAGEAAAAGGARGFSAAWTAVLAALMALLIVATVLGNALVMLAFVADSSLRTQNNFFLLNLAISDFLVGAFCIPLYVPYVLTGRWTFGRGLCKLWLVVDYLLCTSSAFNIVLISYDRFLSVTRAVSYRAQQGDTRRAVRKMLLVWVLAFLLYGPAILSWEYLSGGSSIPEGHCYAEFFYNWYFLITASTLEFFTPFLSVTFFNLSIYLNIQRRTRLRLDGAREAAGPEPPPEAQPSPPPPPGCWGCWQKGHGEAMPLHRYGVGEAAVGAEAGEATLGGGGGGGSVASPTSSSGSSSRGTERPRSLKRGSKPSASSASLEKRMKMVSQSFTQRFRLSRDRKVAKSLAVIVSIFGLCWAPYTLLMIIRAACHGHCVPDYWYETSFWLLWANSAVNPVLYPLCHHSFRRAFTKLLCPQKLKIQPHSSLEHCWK
Molecule,IC50 [nM],inhibition of the binding of N-alpha-methylhistamine (histamine analogue) to histamine-H3 receptor
"2-[4-(3-piperidin-1-ylpropoxy)-phenyl]-3aH-pyrazolo[1,5-d][1,2,4]triazine [Example 1]",6.8,strongly inhibited
"3-Phenyl-6-[6-(3-piperidin-1-ylpropyl)-pyridin-3-ylmethoxy]-[1,2,4]triazolo[3,4-a]phthalazine [Example 24]",10,strongly inhibited
"c1cc(-c2ccc3nncn3n2)ccc1OCCCN1CCCCC1 [Example 10, 6-[4-(3-piperidin-1-ylpropoxy)phenyl]-[1,2,4]triazolo[4,3-b]pyridazine]",1.8,strongly inhibited
"Cc1nn2cnnc2cc1-c1ccc(OCCCN2CCCCC2)cc1 [Example 19, 6-Methyl-7-[4-(3-Piperidin-1-ylpropoxy)-phenyl]-[1,2,4]triazolo[4,3-b]pyridazine]",1.4,strongly inhibited
"Cc1nnc2c3cccnc3c(-c3ccc(OCCCN4CCCCC4)cc3)nn12 [Example 30, 3-Methyl-6-[4-(3-piperidin-1-ylpropoxy)-phenyl]-pyrido[3,2-d][1,2,4]triazolo[4,3-b]pyridazine]",0.1,strongly inhibited
c1cc2c(-c3ccc(OCCCN4CCCCC4)cc3)nn3cnnc3c2cn1 [Example 69],0.23,strongly inhibited
